Results: article PMC12268434 (ACS Omega, 2025)

How the values were obtained:
U-87 MG glioma cells = experiment: CCK-8 cell viability assay, U-87 MG; format: cell-based, human; conditions: U-87 MG glioma / glioblastoma cells
U-87 MG cells = experiment: Flow cytometry; format: cell-based, human; conditions: IC50 concentrations, 24 h

Row | SMILES | cytotoxic activity (in words) (U-87 MG glioma cells) | induction of apoptosis (Annexin V-FITC/PI, in words) (U-87 MG cells)
1 | COc1c(O)cc2c(c1OC)-c1ccc(O)cc1CC2 [compound 7, erianthridin] | no cytotoxic activity | –
2 | COc1c(O)cc2ccc3cc(O)ccc3c2c1OC [compound 6, nudol] | no cytotoxic activity | –
3 | COc1cccc2c1C(=O)c1c(O)c3c(c(O)c1C2=O)C[C@@](O)(C(=O)CO)C[C@@H]3O[C@H]1C[C@H](N)[C@H](O)[C@H](C)O1 [DOX, doxorubicin] | – | induce apoptosis
